In this experiment the target is alkyladenine DNA glycosylase (AAG) (Homo sapiens, UniProt P29372). Briefly: TRES coupled AAG/APE1 activity assay at […]. Type of experiment: biochemical. The conditions noted are these: read-out: % inhibition at 10 μM.

One compound from PMC10257196 (Journal of Pharmaceutical Analysis, 2023) can be followed below.

Sequence of alkyladenine DNA glycosylase (AAG) (P29372 18-298): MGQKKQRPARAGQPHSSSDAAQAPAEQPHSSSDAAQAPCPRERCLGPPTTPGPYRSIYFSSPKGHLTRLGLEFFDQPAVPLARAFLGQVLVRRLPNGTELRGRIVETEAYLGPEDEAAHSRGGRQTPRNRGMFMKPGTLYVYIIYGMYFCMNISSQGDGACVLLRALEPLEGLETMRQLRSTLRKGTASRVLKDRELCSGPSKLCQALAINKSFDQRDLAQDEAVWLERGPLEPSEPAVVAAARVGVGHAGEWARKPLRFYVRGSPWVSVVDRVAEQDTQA

As a reminder, the inhibition is the change of the read-out against control, counted positive when it falls. Turning to `O=c1c(O)c(-c2ccc(O)cc2O)oc2cc(O)cc(O)c12` [morin], the inhibition at 10 µM came out at 77.5%.
